Laboratory results taken from US20100111972A1, “Method for preventing or treating opiate tolerance and dependence” (priority 2008, published 2010).

What was measured:
Format in all cases: in vivo, mice
CGRP = CGRP immunofluorescence in dorsal horn after morphine treatment and withdrawal; conditions: repeated morphine exposure (7 escalating i.p. doses)
Procedure: (§1) Mice were anesthetized and perfused transcardially with cold saline followed by ice-cold 4% paraformaldehyde solution. The lumbar segment of the SC was dissected out and post-fixed at 4° C. for 4 h with the paraformaldehyde solution, then the Histo Prep (Fisher Scientific, Fair Lawn, N.J.) embedded blocks were sectioned on a Leica CM1850 cryostat (Leica Microsystems, Germany). Sections (10 μm) were thaw-mounted on to glass slides and allowed to air dry. The immunofluorescence staining was performed as previously described (Kerr et al, 2000). Endogenous peroxidases were blocked by incubating tissue sections with 0.3% hydrogen peroxide for 30 min and 3% normal goat serum for 20 min. […]
(§2) The morphologic details of the immunofluorescence staining on SC were studied under a fluorescence microscope (Olympus BX51WI; Olympus America Inc., Melville, N.Y.). […] Fos-immunoreactive neurons were counted in blind fashion. The number of Fos-like immunoreactive neurons in DH (laminae I-VI) was determined by averaging the counts made in 20 SC sections (L4-L5) for each group. To obtain quantitative measurements of CGRP immunofluorescence, 15-20 fields covering the entire DH in each group were evaluated and photographed at the same exposure time to generate the raw data. Fluorescence intensities of the different groups were analyzed using MicroSuite image analysis software (Olympus America Inc.). […]

EphB1 receptor protein = assay: Western blot of EphB1 receptor protein in spinal cord; conditions: SC
Procedure: (§3) Western blot analysis was used to detect expression of EphB receptors, ephrinBs, and phosphorylated NR2B, ERK and CREB proteins in the SC. A total of 108 mice were used for Western blotting experiments (SC from 4 mice were pooled for each sample and each group consisted of 3 samples). The lumbar segments of the SC were quickly extracted and immediately frozen in liquid nitrogen, and stored at −80° C. The procedure used to quantify temporal changes in protein levels was similar to that previously described (Bundesen et al, 2003). In brief, protein precipitation procedures in conjunction with Western blots were used to detect protein bands with an enhanced chemiluminescent (ECL) detection procedure. Sequential precipitation procedures were used on tissue samples that were lysed in ice-cold (4° C.) lysis buffer [50 mM Tris, pH 7.5, containing 150 mM NaCl, 1% Triton X-100, 0.5% deoxycholate, 0.1% SDS, 0.2 mM EDTA, 10 mM NaF, […], 0.4 mM 4-(2-aminoethyl)-benzenesulfonyl fluoride, and 1 mM sodium orthovanadate. The protein concentration of the lysates was estimated using the method of BCA (Pierce, Ill.), and the total protein content between samples was equalized. […] Data were analyzed with the Molecular Imager (Gel Doc™ XR, 170-8170) and the associated software Quantity One-4.6.5 (Bio-Rad Laboratories, Hercules, Calif.).

ephrinB1 = assay: Western blot of ephrinB1 in spinal cord; conditions: following escalating morphine treatment or morphine withdrawal; SC
Procedure: as §3

p-NR2B = assay: Western blot of phosphorylated NR2B in spinal cord; conditions: escalated morphine treatment; SC
Procedure: as §3

ephrinB2 = assay: Western blot of ephrinB2 in spinal cord; conditions: following escalating morphine treatment or morphine withdrawal; SC
Procedure: as §3

[1] = tested on: phosphotyrosine (PY99) proteins; assay: Western blot of phosphotyrosine (PY99) proteins in spinal cord; conditions: following escalating morphine treatment or morphine withdrawal; SC
Procedure: as §3

p-ERK = assay: Western blot of phosphorylated ERK in spinal cord; conditions: escalated morphine treatment; SC
Procedure: as §3

p-CREB = assay: Western blot of phosphorylated CREB in spinal cord; conditions: escalated morphine treatment; SC
Procedure: as §3

c-Fos = c-Fos immunostaining in dorsal horn during morphine withdrawal; conditions: naloxone challenge after escalating morphine treatment
Procedure: as §1, §2

| SMILES | expression of CGRP throughout the DH region of the SC (CGRP) | expression of EphB1 receptor protein (EphB1 receptor protein; after escalating morphine treatment) | expression of ephrinB1 (ephrinB1) | level of p-NR2B protein (p-NR2B) | expression of ephrinB2 (ephrinB2) | expression of phosphotyrosine (PY99) proteins [1] | level of p-ERK protein (p-ERK) | level of p-CREB protein (p-CREB) | number of Fos-like immunoreactive neurons in the dorsal horn (c-Fos) | morphine-induced increase in EphB1 receptor protein expression (EphB1 receptor protein; naloxone treatment after escalating morphine) |
| --- | --- | --- | --- | --- | --- | --- | --- | --- | --- | --- |
| CN1CC[C@]23c4c5ccc(O)c4O[C@H]2[C@@H](O)C=C[C@H]3[C@H]1C5 [morphine] | greatly increased | significantly increased | failed to show significant changes | significant increases | failed to show significant changes | failed to show significant changes | significant increases | significant increases | – | – |
| C=CCN1CC[C@]23c4c5ccc(O)c4O[C@H]2C(=O)CC[C@@]3(O)[C@H]1C5 [naloxone] | – | – | – | – | – | – | – | – | significantly increased | did not significantly alter |
